# According to US8987247B2, “Monoacylglycerol lipase inhibitors for the treatment of metabolic diseases and related disorders” (Janssen Pharmaceutica NV, priority 2011, dated 2015):
# Marks after values point to notes of the source that are not given here.
# Assays:
# [1] = system: rats, strain CD(SD)IGS; assay: 5-Day Repeat Dose with Weight Monitoring in Rats; assay type: in vivo, rat; settings: for Mean body weight Change: Day −1 to Day 4
# Protocol: Male and Female rats, strain CD(SD)IGS (Charles River Laboratories International, Inc., MA) of 8 weeks of age were individually housed and maintained on a 12-hr light/dark cycle. Rats were fed ad libitum with a standard diet (Rodent Diet 5001, PMI Nutrition International, Indiana). […] Rats were weighed predose and on days 1 and 4. Clinical observations were recorded prior to dosing, at 2 hours post-dose each day. Rats were fasted overnight on Day 4 and blood was collected on Day 5 from the retro-orbital sinus following anesthesia with a 70/30% carbon dioxide/oxygen mixture. Blood was collected into tubes containing tripotassium EDTA for hematology panel and no additive for serum chemistry determinations. Rats were euthanized by CO2 inhalation and thoracic and abdominal cavities were examined and weights of liver determined.
# [2] = system: beagle dogs; assay: 5-Day Repeat Dose with Weight Monitoring in Dogs; assay type: in vivo, dog; set-up: key to Clinical Observations: Stained urogenital area (no. of dogs) / Body Temperature Change / Body Weight Change: —: No noteworthy findings; settings: for Body Weight Change: 5 days, Day-1 to Day 5; for Body Temperature Change: 4 hours postdose on Day 0
# Protocol: Male and female beagle dogs, 15 months of age, were individually housed and maintained on a 12-hourlight/dark cycle. Dogs were given 300 g/day of Advanced Protocol™ Non-Certified High Density Canine Diet 5L18 (pMfID Nutrition International). Food was provided 0.5 to 2 hours post-dose, except on days of toxicokinetic blood sampling when food was provided after the 4 hour time point. Canned food was supplemented beginning on day 3. A compound of formula (I) was administered orally via gavage using a stomach tube once daily (initiating on Day 0) to male and female dogs (1 each per dose) for 5 consecutive days at 0, 5, 15 and 45 mg/kg/day. Dogs were weighed on Day-1 and Day 5 prior to necropsy. Food consumption was determined 3 days predose and then daily. Body temperature was measured at 0 (predose), 4 and 24 hours on Days 0 and 4. Clinical observations were recorded predose and 2 hours postdose daily. Dogs were fasted overnight prior to blood collection. Blood was collected from all dogs predose on Day-8 and prior to dosing on Day 4 from the jugular vein. Blood was collected into tubes containing tripotassium EDTA for hematology and no additive for serum chemistry determinations. At necropsy, the thoracic and abdominal cavities were examined.
# [3] = system: Sprague-Dawley rats; assay: Effect on Food Intake after Food Deprivation in Rats; assay type: in vivo, rat; settings: 30 mg/kg p.o., rats fasted 18 h, N=6/group
# Protocol: In rats, food deprivation or restriction is a standard method for inducing increased food intake. In other words, depriving the rats of food and then subsequently presenting them with food results, predictably in over-eating (also referred to as rebound hyperphagia). To study the effect of compounds of formula (I) on feeding behavior, rats were treated after food deprivation.
# Adult, male Sprague-Dawley rats were single-housed on a 12 h light/dark cycle and received food and water ad libitum, except where otherwise indicated. Rats were allowed to acclimate to the housing room for at least 1 week prior to testing. One day prior to treatment, each rat was transferred to a new cage that was free of bedding and contained a wire grid floor, and all food was removed. Rats were fasted for 18 h before treatment. Rats were divided into two groups (N=6/group) and received either a compound of formula (I) at 30 mg/kg, p.o. or vehicle. At dosing, all rats received a pre-measured amount of standard rodent chow. After 30 min, the food was re-weighed to determine the amount consumed.
compound,measurement,setting,value
"O=C(c1ccc2c(ccn2-c2ccc(F)cc2)c1)N1CC(N2CCN(C(=O)c3nccs3)CC2)C1 [Cpd 1, 1-(4-Fluorophenyl)-5-({3-[4-(1,3-thiazol-2-ylcarbonyl)piperazin-1-yl]azetidin-1-yl}carbonyl)-1H-indole]",Mean body weight,"[1]; female rats, 15 mg/kg/day oral, Day 4",226.98 +/− 10.29
same,Mean body weight,"[1]; female rats, 15 mg/kg/day oral, Day −1 (predose)",203.86 +/− 6.13
same,Mean body weight,"[1]; female rats, 50 mg/kg/day oral, Day −1 (predose)",199.16 +/− 5.66
same,Mean body weight Change,"[1]; female rats, 50 mg/kg/day oral",8.54 +/− 2.32
same,Mean body weight,"[1]; male rats, 15 mg/kg/day oral, Day 4",301.94 +/− 7.52
same,Mean body weight,"[1]; male rats, 15 mg/kg/day oral, Day −1 (predose)",273.34 +/− 4.80
same,Mean body weight Change,"[1]; male rats, 15 mg/kg/day oral",28.60 +/− 2.90
same,Mean body weight,"[1]; male rats, 50 mg/kg/day oral, Day 4",278.78 +/− 6.95
same,Mean body weight,"[1]; male rats, 50 mg/kg/day oral, Day −1 (predose)",272.66 +/− 6.92
same,Mean body weight Change,"[1]; male rats, 50 mg/kg/day oral",6.10 +/− 3.56*
same,Clinical Observations: Emesis (no. of dogs),"[2]; dog F:1, 5 mg/kg daily oral",1
same,"Clinical Observations: Feces, absent (no. of dogs)","[2]; dog F:1, 5 mg/kg daily oral",1
same,"Clinical Observations: Feces, decrease (no. of dogs)","[2]; dog F:1, 5 mg/kg daily oral",1
same,Clinical Observations: Stained urogenital area (no. of dogs),"[2]; dog F:1, 5 mg/kg daily oral",—
same,Food Consumption,"[2]; dog F:1, 5 mg/kg daily oral",↓
same,Body Weight Change,"[2]; dog F:1, 5 mg/kg daily oral",−0.90
same,Body Temperature Change,"[2]; dog F:1, 5 mg/kg daily oral",−3.2
same,Clinical Observations: Emesis (no. of dogs),"[2]; dog F:1, 15 mg/kg daily oral",1
same,"Clinical Observations: Feces, absent (no. of dogs)","[2]; dog F:1, 15 mg/kg daily oral",1
same,"Clinical Observations: Feces, decrease (no. of dogs)","[2]; dog F:1, 15 mg/kg daily oral",1
same,Clinical Observations: Stained urogenital area (no. of dogs),"[2]; dog F:1, 15 mg/kg daily oral",1
same,Food Consumption,"[2]; dog F:1, 15 mg/kg daily oral",↓
same,Body Weight Change,"[2]; dog F:1, 15 mg/kg daily oral",—
same,Body Temperature Change,"[2]; dog F:1, 15 mg/kg daily oral",−1.6
same,Clinical Observations: Emesis (no. of dogs),"[2]; dog F:1, 45 mg/kg daily oral",1
same,"Clinical Observations: Feces, absent (no. of dogs)","[2]; dog F:1, 45 mg/kg daily oral",1
same,"Clinical Observations: Feces, decrease (no. of dogs)","[2]; dog F:1, 45 mg/kg daily oral",1
same,Clinical Observations: Stained urogenital area (no. of dogs),"[2]; dog F:1, 45 mg/kg daily oral",1
same,Food Consumption,"[2]; dog F:1, 45 mg/kg daily oral",↓
same,Body Weight Change,"[2]; dog F:1, 45 mg/kg daily oral",−1.28
same,Body Temperature Change,"[2]; dog F:1, 45 mg/kg daily oral",—
same,Clinical Observations: Emesis (no. of dogs),"[2]; dog M:1, 5 mg/kg daily oral",1
same,"Clinical Observations: Feces, absent (no. of dogs)","[2]; dog M:1, 5 mg/kg daily oral",1
same,"Clinical Observations: Feces, decrease (no. of dogs)","[2]; dog M:1, 5 mg/kg daily oral",1
same,Clinical Observations: Stained urogenital area (no. of dogs),"[2]; dog M:1, 5 mg/kg daily oral",—
same,Food Consumption,"[2]; dog M:1, 5 mg/kg daily oral",↓
same,Body Weight Change,"[2]; dog M:1, 5 mg/kg daily oral",−1.10
same,Body Temperature Change,"[2]; dog M:1, 5 mg/kg daily oral",−3.4
same,Clinical Observations: Emesis (no. of dogs),"[2]; dog M:1, 15 mg/kg daily oral",1
same,"Clinical Observations: Feces, absent (no. of dogs)","[2]; dog M:1, 15 mg/kg daily oral",1
same,"Clinical Observations: Feces, decrease (no. of dogs)","[2]; dog M:1, 15 mg/kg daily oral",1
same,Clinical Observations: Stained urogenital area (no. of dogs),"[2]; dog M:1, 15 mg/kg daily oral",1
same,Food Consumption,"[2]; dog M:1, 15 mg/kg daily oral",↓
same,Body Weight Change,"[2]; dog M:1, 15 mg/kg daily oral",−0.74
same,Body Temperature Change,"[2]; dog M:1, 15 mg/kg daily oral",—
same,Clinical Observations: Emesis (no. of dogs),"[2]; dog M:1, 45 mg/kg daily oral",1
same,"Clinical Observations: Feces, absent (no. of dogs)","[2]; dog M:1, 45 mg/kg daily oral",1
same,"Clinical Observations: Feces, decrease (no. of dogs)","[2]; dog M:1, 45 mg/kg daily oral",1
same,Clinical Observations: Stained urogenital area (no. of dogs),"[2]; dog M:1, 45 mg/kg daily oral",1
same,Food Consumption,"[2]; dog M:1, 45 mg/kg daily oral",↓
same,Body Weight Change,"[2]; dog M:1, 45 mg/kg daily oral",−0.78
same,Body Temperature Change,"[2]; dog M:1, 45 mg/kg daily oral",−1.9
same,Food Intake (g of food over 30 min),[3],1.60 ± 1.02 g
